O=[N+]([O-])c1cc([N+](=O)[O-])c(O)c(Cl)c1O
Details | solubility (mole fraction)
in acetic acid, 299.35 K | 0.00649
in acetic acid, 305.55 K | 0.00872
in acetic acid, 311.45 K | 0.0112
in acetic acid, 315.05 K | 0.013
in acetic acid, 318.75 K | 0.0149
in acetic acid, 321.85 K | 0.0167
in acetic acid, 323.95 K | 0.0179
in acetic acid, 327.65 K | 0.0202
in acetic acid, 334.65 K | 0.0248
in acetic acid, 336.45 K | 0.026
in acetic acid, 340.45 K | 0.0289
in acetic acid, 343.15 K | 0.0308
in ethanol, 299.35 K | 0.00297
in ethanol, 303.15 K | 0.00355
in ethanol, 307.35 K | 0.00428
in ethanol, 310.75 K | 0.00493
in ethanol, 314.25 K | 0.00568
in ethanol, 317.65 K | 0.00648
in ethanol, 320.15 K | 0.00711
in ethanol, 326.35 K | 0.00882
in ethanol, 329.85 K | 0.00989
in ethanol, 332.65 K | 0.0108
in ethanol, 335.45 K | 0.0118
in ethanol, 339.15 K | 0.0131
in ethanol, 343.75 K | 0.0148
in ethyl acetate, 298.75 K | 0.0449
in ethyl acetate, 302.65 K | 0.0474
in ethyl acetate, 306.25 K | 0.0498
in ethyl acetate, 309.95 K | 0.0525
in ethyl acetate, 313.85 K | 0.0555
in ethyl acetate, 318.15 K | 0.0589
in ethyl acetate, 323.15 K | 0.0633
in ethyl acetate, 327.25 K | 0.067
in ethyl acetate, 331.85 K | 0.0716
in ethyl acetate, 333.35 K | 0.0731
in ethyl acetate, 337.15 K | 0.0772
in ethyl acetate, 342.55 K | 0.0834
in ethyl acetate, 344.95 K | 0.0863
in methanol, 299.75 K | 0.00172
in methanol, 305.95 K | 0.00239
in methanol, 308.75 K | 0.00277
in methanol, 311.25 K | 0.00316
in methanol, 313.65 K | 0.00359
in methanol, 315.95 K | 0.00406
in methanol, 318.15 K | 0.00456
in methanol, 320.75 K | 0.00524
in methanol, 323.35 K | 0.006
in methanol, 327.05 K | 0.00731
in methanol, 330.15 K | 0.0086
in water, 298.85 K | 3.49e-05
in water, 301.15 K | 3.65e-05
in water, 303.65 K | 4.23e-05
in water, 306.35 K | 4.59e-05
in water, 309.05 K | 4.86e-05
in water, 311.35 K | 5.44e-05
in water, 313.35 K | 5.67e-05
in water, 315.75 K | 6.29e-05
in water, 318.15 K | 6.8e-05
in water, 320.65 K | 7.62e-05
in water, 323.15 K | 8.17e-05
in water, 325.85 K | 9.12e-05
in water, 327.45 K | 9.79e-05
in water, 330.15 K | 0.000106
in water, 332.25 K | 0.000113
in water, 336.35 K | 0.00013
in water, 339.55 K | 0.000142
in water, 341.95 K | 0.000152

From BigSolDB 2.1
